Measurements: US7750003B2, “Compounds-943” (AstraZeneca AB, priority 2006, dated 2010)
“And” between values parts separate entries of the source, which are not always exact repeats. Equal entries are not always repeated.

Legend:
[1] = molecular target: T1, p110α Type Ia human PI3K (Homo sapiens, UniProt P42336); assay: In vitro PI3K enzyme assay (Test (b), AlphaScreen), p110α; type: biochemical; conditions: ATP 4 μM, read-out: Test (b): IC50 versus p110α Type Ia human PI3K
T1 construct: full length DNA of each of the p110α, p110β and p110δ Type Ia human PI3K p110 isoforms; 6-His; made in house
Text: (b) In Vitro PI3K Enzyme Assay
The assay used AlphaScreen technology (Gray et al., Analytical Biochemistry, 2003, 313: 234-245) to determine the ability of test compounds to inhibit phosphorylation by recombinant Type I PI3K enzymes of the lipid PI(4,5)P2.
DNA fragments encoding human PI3K catalytic and regulatory subunits were isolated from cDNA libraries using standard molecular biology and PCR cloning techniques. The selected DNA fragments were used to generate baculovirus expression vectors. In particular, full length DNA of each of the p110α, p110β and p110δ Type Ia human PI3K p110 isoforms (EMBL Accession Nos. HSU79143, S67334, Y10055 for p110α, p110β and p110δ respectively) were sub-cloned into a pDEST10 vector (Invitrogen Limited, Fountain Drive, Paisley, UK). The vector is a Gateway-adapted version of Fastbac1 containing a 6-His epitope tag. […]
Biotinylated-DiC8-PI(3,4,5)P3 (50 nM; Cell Signals Inc., Catalogue No. 107), recombinant purified GST-Grp1 PH protein (2.5 nM) and AlphaScreen Anti-GST donor and acceptor beads (100 ng; Packard Bioscience Limited, Station Road, Pangbourne, Berkshire, UK, Catalogue No. 6760603M) were added and the assay plates were left for about 5 to 20 hours at room temperature in the dark. The resultant signals arising from laser light excitation at 680 nm were read using a Packard AlphaQuest instrument. […]

[2] = molecular target: recombinant mTOR (FLAG-tagged, residues 1362-2549) (Homo sapiens, UniProt P42345); assay: In vitro mTOR kinase assay (Test (a), AlphaScreen); type: biochemical; conditions: ATP 20 μM, read-out: Test (a): IC50 versus mTOR kinase
How it was run: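 AlphaScreen read-out: a phospho-T389 p70 S6K antibody on acceptor beads captures the phosphorylated biotin-peptide on donor beads, with signal loss indicating inhibition.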

Chain of recombinant mTOR (FLAG-tagged, residues 1362-2549) (P42345 1362-2549): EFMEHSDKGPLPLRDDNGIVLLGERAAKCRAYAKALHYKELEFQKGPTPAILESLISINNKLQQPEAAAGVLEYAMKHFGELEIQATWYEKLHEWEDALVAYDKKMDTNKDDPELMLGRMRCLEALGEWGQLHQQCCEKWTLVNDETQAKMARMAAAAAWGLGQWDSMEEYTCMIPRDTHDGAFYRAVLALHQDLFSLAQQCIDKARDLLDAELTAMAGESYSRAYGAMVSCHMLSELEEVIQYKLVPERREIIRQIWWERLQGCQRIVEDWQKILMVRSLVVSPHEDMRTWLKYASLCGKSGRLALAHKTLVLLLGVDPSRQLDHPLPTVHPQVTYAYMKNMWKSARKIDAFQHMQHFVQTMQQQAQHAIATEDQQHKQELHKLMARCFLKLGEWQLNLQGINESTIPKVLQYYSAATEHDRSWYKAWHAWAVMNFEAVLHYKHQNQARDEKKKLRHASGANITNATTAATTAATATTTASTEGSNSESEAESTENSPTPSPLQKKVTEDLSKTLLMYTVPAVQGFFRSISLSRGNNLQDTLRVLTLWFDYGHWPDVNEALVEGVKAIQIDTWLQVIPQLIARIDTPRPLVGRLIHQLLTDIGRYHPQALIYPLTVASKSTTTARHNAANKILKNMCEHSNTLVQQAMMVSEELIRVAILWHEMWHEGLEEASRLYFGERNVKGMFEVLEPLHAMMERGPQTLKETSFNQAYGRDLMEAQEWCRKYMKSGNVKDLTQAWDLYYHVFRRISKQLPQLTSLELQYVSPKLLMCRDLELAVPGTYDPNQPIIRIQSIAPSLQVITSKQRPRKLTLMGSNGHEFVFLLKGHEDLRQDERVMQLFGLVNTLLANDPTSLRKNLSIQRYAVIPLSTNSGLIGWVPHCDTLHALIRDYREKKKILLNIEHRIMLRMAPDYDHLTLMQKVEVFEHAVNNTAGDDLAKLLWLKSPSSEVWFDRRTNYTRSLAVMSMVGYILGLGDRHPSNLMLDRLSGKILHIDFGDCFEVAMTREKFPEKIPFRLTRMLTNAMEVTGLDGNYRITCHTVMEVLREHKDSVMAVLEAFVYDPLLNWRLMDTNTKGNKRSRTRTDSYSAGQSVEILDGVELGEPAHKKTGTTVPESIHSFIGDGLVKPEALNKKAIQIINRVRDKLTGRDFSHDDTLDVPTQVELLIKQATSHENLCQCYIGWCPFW
T1 sequence (P42336 whole entry, canonical isoform): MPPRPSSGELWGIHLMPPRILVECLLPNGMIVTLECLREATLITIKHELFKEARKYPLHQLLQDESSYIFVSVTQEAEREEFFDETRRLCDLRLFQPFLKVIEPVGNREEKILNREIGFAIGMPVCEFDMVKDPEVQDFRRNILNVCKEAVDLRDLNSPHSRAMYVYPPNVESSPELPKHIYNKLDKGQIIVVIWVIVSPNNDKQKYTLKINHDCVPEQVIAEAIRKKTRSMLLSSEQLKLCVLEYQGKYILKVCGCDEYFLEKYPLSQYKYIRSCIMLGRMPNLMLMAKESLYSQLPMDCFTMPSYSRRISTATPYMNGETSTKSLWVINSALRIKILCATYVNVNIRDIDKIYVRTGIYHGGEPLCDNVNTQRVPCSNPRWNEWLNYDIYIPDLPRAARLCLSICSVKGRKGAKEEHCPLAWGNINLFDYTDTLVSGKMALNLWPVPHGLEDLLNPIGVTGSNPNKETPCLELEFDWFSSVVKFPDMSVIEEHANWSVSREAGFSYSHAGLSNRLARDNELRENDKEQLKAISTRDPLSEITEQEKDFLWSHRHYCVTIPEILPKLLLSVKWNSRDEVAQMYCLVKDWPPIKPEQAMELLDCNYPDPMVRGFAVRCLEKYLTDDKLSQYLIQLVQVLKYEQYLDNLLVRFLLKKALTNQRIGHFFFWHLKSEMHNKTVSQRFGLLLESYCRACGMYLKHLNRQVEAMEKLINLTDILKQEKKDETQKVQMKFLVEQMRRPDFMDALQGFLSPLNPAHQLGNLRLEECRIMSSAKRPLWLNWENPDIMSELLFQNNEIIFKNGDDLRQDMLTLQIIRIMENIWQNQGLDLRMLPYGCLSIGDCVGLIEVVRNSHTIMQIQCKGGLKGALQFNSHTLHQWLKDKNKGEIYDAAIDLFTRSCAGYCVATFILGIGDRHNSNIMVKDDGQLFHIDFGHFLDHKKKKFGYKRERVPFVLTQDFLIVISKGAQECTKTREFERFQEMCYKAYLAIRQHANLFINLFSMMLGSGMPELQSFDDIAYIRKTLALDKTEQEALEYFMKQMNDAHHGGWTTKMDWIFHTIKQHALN
T1 sequence (P27986 whole entry partner, canonical isoform): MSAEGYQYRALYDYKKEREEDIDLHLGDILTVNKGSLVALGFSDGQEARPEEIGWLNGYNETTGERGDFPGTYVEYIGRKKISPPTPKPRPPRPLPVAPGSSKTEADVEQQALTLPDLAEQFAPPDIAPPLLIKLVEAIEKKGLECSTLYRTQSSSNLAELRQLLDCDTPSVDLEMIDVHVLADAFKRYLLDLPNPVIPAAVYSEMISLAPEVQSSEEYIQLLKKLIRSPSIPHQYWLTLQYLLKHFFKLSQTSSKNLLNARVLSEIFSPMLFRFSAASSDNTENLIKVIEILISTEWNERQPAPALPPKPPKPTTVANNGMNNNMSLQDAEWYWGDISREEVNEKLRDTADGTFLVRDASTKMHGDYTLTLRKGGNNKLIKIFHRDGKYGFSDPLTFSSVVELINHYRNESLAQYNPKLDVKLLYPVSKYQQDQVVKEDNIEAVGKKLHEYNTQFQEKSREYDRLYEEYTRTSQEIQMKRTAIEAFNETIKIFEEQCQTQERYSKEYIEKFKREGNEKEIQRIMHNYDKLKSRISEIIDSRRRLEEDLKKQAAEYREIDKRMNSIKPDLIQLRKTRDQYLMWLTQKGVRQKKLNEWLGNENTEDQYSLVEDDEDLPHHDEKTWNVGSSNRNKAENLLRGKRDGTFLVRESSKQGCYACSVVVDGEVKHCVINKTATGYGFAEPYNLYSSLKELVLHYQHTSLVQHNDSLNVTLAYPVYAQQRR

IC50 [1]: 91200 nM and 57800 nM
IC50 [2]: 120 nM and 155 nM and 93 nM
Structure (SMILES): Cc1cc(NC(=O)Nc2ccc(-c3nc(CS(C)(=O)=O)cc(N4CCOCC4)n3)cc2)no1 [Example 34b, 1-(5-methyl-1,2-oxazol-3-yl)-3-[4-[4-(methylsulfonylmethyl)-6-morpholin-4-yl-pyrimidin-2-yl]phenyl]urea]
